{
  "source": "patent US11708562B2",
  "about": "“Differentiation of human embryonic stem cells” (Janssen Biotech, Inc., priority 2006, dated 2023)",
  "system": "H9P33, H9P44 and H9P48 cells",
  "test": "Microarray analysis of definitive endoderm on MEFs vs MATRIGEL +/- Wnt-3A (Table VI)",
  "conditions": "DE treatment in low serum",
  "procedure": "Controls for each group included cells plated on […]-coated dishes and cultured in MEF-conditioned medium or cells plated on MEFs and cultured in ES medium. All groups contained three biological replicates and each biological replicate was repeated on two separate gene chips.\nSample preparation, hybridization, and image analysis were performed according to the Affymetrix Human Genome U133 Plus 2.0 Array. Following normalization and a log transformation, data analysis was performed using OmniViz® software (MA) and […] (VizXLabs, WA). Significant differences in gene expression between the samples were evaluated using analysis of variance and an F-test with adjusted P-value (Benjamini and Hochberg correction) of ≤0.05. Only genes with a present call in at least one group were included in the analysis.",
  "data": [
    {"substance": "Activin A: a member of the TGFβ superfamily; growth factor (R&D Systems) used to differentiate human embryonic stem cells", "values": [
      {"measurement": "mean normalized intensity (log format), Human (clone HSY3RR) neuropeptide Y receptor (NPYR) mRNA", "setting": "on MATRIGEL", "result": 1.775},
      {"measurement": "mean normalized intensity (log format), Human DNA sequence from clone RP1-181C24 on chromosome 6p11.1-12.2 (3 end of the BMP5 gene)", "setting": "on MATRIGEL", "result": "−3.723"},
      {"measurement": "mean normalized intensity (log format), Human Fritz mRNA, complete cds", "setting": "on MATRIGEL", "result": 0.4366},
      {"measurement": "mean normalized intensity (log format), Human dipeptidyl peptidase IV (CD26) mRNA", "setting": "on MATRIGEL", "result": "−3.611"},
      {"measurement": "mean normalized intensity (log format), Human glycophorin HeP2 mRNA, partial cds", "setting": "on MATRIGEL", "result": "−0.8435"},
      {"measurement": "mean normalized intensity (log format), Human link protein mRNA, complete cds", "setting": "on MATRIGEL", "result": "−1.94"},
      {"measurement": "mean normalized intensity (log format), Human mRNA for alpha-1 type II collagen", "setting": "on MATRIGEL", "result": "−2.8736"},
      {"measurement": "mean normalized intensity (log format), Human mRNA for apolipoprotein AI (apo AI)", "setting": "on MATRIGEL", "result": 0.2151},
      {"measurement": "mean normalized intensity (log format), Human prostatic secretory protein 57 mRNA", "setting": "on MATRIGEL", "result": "−3.013"},
      {"measurement": "mean normalized intensity (log format), KIAA0878 protein", "setting": "on MATRIGEL", "result": 1.1189},
      {"measurement": "mean normalized intensity (log format), KIAA1462 protein", "setting": "on MATRIGEL", "result": "−3.846"},
      {"measurement": "mean normalized intensity (log format), MCP-1 = monocyte chemotactic protein", "setting": "on MATRIGEL", "result": "−2.276"},
      {"measurement": "mean normalized intensity (log format), Rho GDP dissociation inhibitor (GDI) alpha", "setting": "on MATRIGEL", "result": "−1.544"},
      {"measurement": "mean normalized intensity (log format), WAS protein family, member 2", "setting": "on MATRIGEL", "result": "−2.187"},
      {"measurement": "mean normalized intensity (log format), collagen, type IX, alpha 2", "setting": "on MATRIGEL", "result": 1.27},
      {"measurement": "mean normalized intensity (log format), collagen, type VI, alpha 1", "setting": "on MATRIGEL", "result": "−1.418"},
      {"measurement": "mean normalized intensity (log format), glycophorin B (includes Ss blood group)", "setting": "on MATRIGEL", "result": "−2.852"},
      {"measurement": "mean normalized intensity (log format), hepatocyte nuclear factor 4, alpha", "setting": "on MATRIGEL", "result": "−4.266"},
      {"measurement": "mean normalized intensity (log format), homeo box HB9", "setting": "on MATRIGEL", "result": "−1.656"},
      {"measurement": "mean normalized intensity (log format), hypothetical protein FLJ21032", "setting": "on MATRIGEL", "result": 0.3557},
      {"measurement": "mean normalized intensity (log format), hypothetical protein FLJ23091", "setting": "on MATRIGEL", "result": 0.3234},
      {"measurement": "mean normalized intensity (log format), hypothetical protein FLJ23403", "setting": "on MATRIGEL", "result": "−1.456"},
      {"measurement": "mean normalized intensity (log format), matrix metalloproteinase 14 (membrane-inserted)", "setting": "on MATRIGEL", "result": "−2.057"},
      {"measurement": "mean normalized intensity (log format), microfibrillar-associated protein 4", "setting": "on MATRIGEL", "result": 0.06379},
      {"measurement": "mean normalized intensity (log format), myristoylated alanine-rich protein kinase C substrate (MARCKS, 80K-L)", "setting": "on MATRIGEL", "result": "−0.7172"},
      {"measurement": "mean normalized intensity (log format), neuropilin 1", "setting": "on MATRIGEL", "result": "−1.623"},
      {"measurement": "mean normalized intensity (log format), noggin", "setting": "on MATRIGEL", "result": "−1.636"},
      {"measurement": "mean normalized intensity (log format), phorbolin-like protein MDS019", "setting": "on MATRIGEL", "result": "−1.118"},
      {"measurement": "mean normalized intensity (log format), solute carrier family 16 (monocarboxylic acid transporters), member 3", "setting": "on MATRIGEL", "result": "−0.06641"},
      {"measurement": "mean normalized intensity (log format), splicing factor, arginineserine-rich 5", "setting": "on MATRIGEL", "result": 0.7481},
      {"measurement": "mean normalized intensity (log format), stanniocalcin 1", "setting": "on MATRIGEL", "result": 2.411},
      {"measurement": "mean normalized intensity (log format), 6-phosphofructo-2-kinasefructose-2,6-biphosphatase 4", "setting": "on MEFS", "result": 1.6},
      {"measurement": "mean normalized intensity (log format), Cluster Incl. AB028021: Homo sapiens HNF-3beta mRNA for hepatocyte nuclear factor-3 beta", "setting": "on MEFS", "result": 4.117},
      {"measurement": "mean normalized intensity (log format), ESTs, Highly similar to IHH_HUMAN INDIAN HEDGEHOG PROTEIN PRECURSOR (H. sapiens)", "setting": "on MEFS", "result": 0.5905},
      {"measurement": "mean normalized intensity (log format), ESTs, Moderately similar to JE0284 Mm-1 cell derived transplantability-associated protein 1b (H. sapiens)", "setting": "on MEFS", "result": 4.222},
      {"measurement": "mean normalized intensity (log format), ESTs, Weakly similar to FCE2 MOUSE LOW AFFINITY IMMUNOGLOBULIN EPSILON FC RECEPTOR (M. musculus)", "setting": "on MEFS", "result": 3.48},
      {"measurement": "mean normalized intensity (log format), ESTs, Weakly similar to the 331st table hypothetical protein KIAA0555 (H. sapiens)", "setting": "on MEFS", "result": 0.4436},
      {"measurement": "mean normalized intensity (log format), G protein-coupled receptor", "setting": "on MEFS", "result": 5.053},
      {"measurement": "mean normalized intensity (log format), G protein-coupled receptor 49", "setting": "on MEFS", "result": 2.505},
      {"measurement": "mean normalized intensity (log format), Homo sapiens HNF-3beta mRNA for hepatocyte nuclear factor-3 beta", "setting": "on MEFS", "result": 2.825},
      {"measurement": "mean normalized intensity (log format), Homo sapiens KIAA0878 protein (KIAA0878), mRNA", "setting": "on MEFS", "result": 5.654},
      {"measurement": "mean normalized intensity (log format), Homo sapiens Kell blood group (KEL), mRNA", "setting": "on MEFS", "result": "−0.3839"},
      {"measurement": "mean normalized intensity (log format), Homo sapiens MLL septin-like fusion (MSF), mRNA", "setting": "on MEFS", "result": "−1.5"},
      {"measurement": "mean normalized intensity (log format), Homo sapiens Mix-like homeobox protein 1 (MILD1) mRNA", "setting": "on MEFS", "result": 0.922},
      {"measurement": "mean normalized intensity (log format), Homo sapiens Rho GTPase activating protein 6 (ARHGAP6), transcript variant 2, mRNA", "setting": "on MEFS", "result": "−1.285"},
      {"measurement": "mean normalized intensity (log format), Homo sapiens TBX3-iso protein (TBX3-iso), mRNA", "setting": "on MEFS", "result": 1.07},
      {"measurement": "mean normalized intensity (log format), Homo sapiens angiopoietin 2 (ANGPT2), mRNA", "setting": "on MEFS", "result": 0.5968},
      {"measurement": "mean normalized intensity (log format), Homo sapiens ankyrin-like with transmembrane domains 1 (ANKTM1), mRNA", "setting": "on MEFS", "result": 2.819},
      {"measurement": "mean normalized intensity (log format), Homo sapiens apolipoprotein A-I (APOA1), mRNA", "setting": "on MEFS", "result": 2.469},
      {"measurement": "mean normalized intensity (log format), Homo sapiens apolipoprotein A-II (APOA2), mRNA", "setting": "on MEFS", "result": 4.469},
      {"measurement": "mean normalized intensity (log format), Homo sapiens arylsulfatase E (chondrodysplasia punctata 1) (ARSE), mRNA", "setting": "on MEFS", "result": 3.184},
      {"measurement": "mean normalized intensity (log format), Homo sapiens atrophin-1 interacting protein 1; activin receptor interacting protein 1 (KIAA0705), mRNA", "setting": "on MEFS", "result": "−1.32"},
      {"measurement": "mean normalized intensity (log format), Homo sapiens beta-site APP cleaving enzyme (BACE) mRNA", "setting": "on MEFS", "result": 1.754},
      {"measurement": "mean normalized intensity (log format), Homo sapiens cDNA FLJ11550 fis, clone HEMBA1002970", "setting": "on MEFS", "result": 4.216},
      {"measurement": "mean normalized intensity (log format), Homo sapiens cDNA FLJ12993 fis, clone NT2RP3000197", "setting": "on MEFS", "result": 2.069},
      {"measurement": "mean normalized intensity (log format), Homo sapiens cDNA FLJ13221 fis, clone NT2RP4002075", "setting": "on MEFS", "result": 1.31},
      {"measurement": "mean normalized intensity (log format), Homo sapiens cardiac ventricular troponin C mRNA", "setting": "on MEFS", "result": 1.4377},
      {"measurement": "mean normalized intensity (log format), Homo sapiens cartilage linking protein 1 (CRTL1), mRNA", "setting": "on MEFS", "result": "−0.8052"},
      {"measurement": "mean normalized intensity (log format), Homo sapiens cell adhesion molecule with homology to L1CAM (close homologue of L1) (CHL1), mRNA", "setting": "on MEFS", "result": "−2.5002"},
      {"measurement": "mean normalized intensity (log format), Homo sapiens chromosome 19, cosmid R31181", "setting": "on MEFS", "result": 0.2239},
      {"measurement": "mean normalized intensity (log format), Homo sapiens clone 23736 mRNA sequence", "setting": "on MEFS", "result": 4.507},
      {"measurement": "mean normalized intensity (log format), Homo sapiens cryptic mRNA, complete cds", "setting": "on MEFS", "result": "−0.6735"},
      {"measurement": "mean normalized intensity (log format), Homo sapiens cystatin SA (CST2), mRNA", "setting": "on MEFS", "result": 2.1671},
      {"measurement": "mean normalized intensity (log format), Homo sapiens cystatin SN (CST1), mRNA", "setting": "on MEFS", "result": 4.64},
      {"measurement": "mean normalized intensity (log format), Homo sapiens cytidine deaminase (CDA), mRNA", "setting": "on MEFS", "result": "−1.67"},
      {"measurement": "mean normalized intensity (log format), Homo sapiens dual specificity phosphatase 4 (DUSP4), mRNA", "setting": "on MEFS", "result": 4.122},
      {"measurement": "mean normalized intensity (log format), Homo sapiens fibroblast growth factor 8 (androgen-induced) (FGF8), mRNA", "setting": "on MEFS", "result": 0.01583},
      {"measurement": "mean normalized intensity (log format), Homo sapiens fibroblast growth factor 17 (FGF17), mRNA", "setting": "on MEFS", "result": 2.4872},
      {"measurement": "mean normalized intensity (log format), Homo sapiens frizzled-related protein (FRZB), mRNA", "setting": "on MEFS", "result": 3.676},
      {"measurement": "mean normalized intensity (log format), Homo sapiens gastrin-releasing peptide (GRP), mRNA", "setting": "on MEFS", "result": 0.5098},
      {"measurement": "mean normalized intensity (log format), Homo sapiens glycophorin B (includes Ss blood group) (GYPB), mRNA", "setting": "on MEFS", "result": 0.1803},
      {"measurement": "mean normalized intensity (log format), Homo sapiens glycophorin E (GYPE), mRNA", "setting": "on MEFS", "result": "−1.501"}
    ]}
  ]
}
